Test results from ChEMBL document CHEMBL5550200, “Back-Pocket Optimization of 2-Aminopyrimidine-Based Macrocycles Leads to Potent EPHA2/GAK Kinase Inhibitors” (J Med Chem, 2024).

What was measured:
[1] = molecular target: Ephrin type-A receptor 4 (Homo sapiens, UniProt P54764); experiment: Induction of stabilization of recombinant EPHA4 (unknown origin) assessed as change in melting temperature by differential scanning fluorimetry assay
[2] = molecular target: Ephrin type-A receptor 7 (Homo sapiens) (UniProt Q15375); experiment: Induction of stabilization of recombinant EPHA7 (unknown origin) assessed as change in melting temperature by differential scanning fluorimetry assay
Sequence of Ephrin type-A receptor 7 (Homo sapiens) (Q15375 28-998 limits assumed): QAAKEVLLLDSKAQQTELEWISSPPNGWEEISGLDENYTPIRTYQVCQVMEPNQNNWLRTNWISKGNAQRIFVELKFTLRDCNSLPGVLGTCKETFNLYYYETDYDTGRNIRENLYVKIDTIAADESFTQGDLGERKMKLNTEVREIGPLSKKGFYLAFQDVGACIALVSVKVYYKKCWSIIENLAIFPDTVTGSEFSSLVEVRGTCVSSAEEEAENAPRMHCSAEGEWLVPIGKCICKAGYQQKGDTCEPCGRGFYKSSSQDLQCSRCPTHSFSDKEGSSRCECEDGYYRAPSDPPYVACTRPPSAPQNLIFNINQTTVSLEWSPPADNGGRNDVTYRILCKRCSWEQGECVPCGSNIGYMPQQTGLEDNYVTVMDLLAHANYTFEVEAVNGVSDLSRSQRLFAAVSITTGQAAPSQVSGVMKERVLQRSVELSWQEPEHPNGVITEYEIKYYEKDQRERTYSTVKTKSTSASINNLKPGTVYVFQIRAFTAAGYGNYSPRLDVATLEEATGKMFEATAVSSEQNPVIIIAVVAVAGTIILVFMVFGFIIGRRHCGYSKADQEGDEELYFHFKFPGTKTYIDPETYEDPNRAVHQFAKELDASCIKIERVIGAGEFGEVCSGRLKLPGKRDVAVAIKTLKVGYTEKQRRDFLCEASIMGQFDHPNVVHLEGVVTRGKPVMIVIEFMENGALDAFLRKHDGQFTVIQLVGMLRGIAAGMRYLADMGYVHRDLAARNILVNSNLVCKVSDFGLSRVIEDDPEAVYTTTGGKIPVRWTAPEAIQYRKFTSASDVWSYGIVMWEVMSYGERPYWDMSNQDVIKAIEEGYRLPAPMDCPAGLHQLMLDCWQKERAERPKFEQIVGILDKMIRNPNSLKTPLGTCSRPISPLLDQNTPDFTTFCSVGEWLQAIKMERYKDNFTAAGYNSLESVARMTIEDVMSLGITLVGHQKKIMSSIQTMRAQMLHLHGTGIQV

[3] = molecular target: T1, Ephrin type-B receptor 1 (Homo sapiens) (UniProt P54762); experiment: Induction of stabilization of recombinant EPHB1 (unknown origin) assessed as change in melting temperature by differential scanning fluorimetry assay
T1 sequence (whole entry): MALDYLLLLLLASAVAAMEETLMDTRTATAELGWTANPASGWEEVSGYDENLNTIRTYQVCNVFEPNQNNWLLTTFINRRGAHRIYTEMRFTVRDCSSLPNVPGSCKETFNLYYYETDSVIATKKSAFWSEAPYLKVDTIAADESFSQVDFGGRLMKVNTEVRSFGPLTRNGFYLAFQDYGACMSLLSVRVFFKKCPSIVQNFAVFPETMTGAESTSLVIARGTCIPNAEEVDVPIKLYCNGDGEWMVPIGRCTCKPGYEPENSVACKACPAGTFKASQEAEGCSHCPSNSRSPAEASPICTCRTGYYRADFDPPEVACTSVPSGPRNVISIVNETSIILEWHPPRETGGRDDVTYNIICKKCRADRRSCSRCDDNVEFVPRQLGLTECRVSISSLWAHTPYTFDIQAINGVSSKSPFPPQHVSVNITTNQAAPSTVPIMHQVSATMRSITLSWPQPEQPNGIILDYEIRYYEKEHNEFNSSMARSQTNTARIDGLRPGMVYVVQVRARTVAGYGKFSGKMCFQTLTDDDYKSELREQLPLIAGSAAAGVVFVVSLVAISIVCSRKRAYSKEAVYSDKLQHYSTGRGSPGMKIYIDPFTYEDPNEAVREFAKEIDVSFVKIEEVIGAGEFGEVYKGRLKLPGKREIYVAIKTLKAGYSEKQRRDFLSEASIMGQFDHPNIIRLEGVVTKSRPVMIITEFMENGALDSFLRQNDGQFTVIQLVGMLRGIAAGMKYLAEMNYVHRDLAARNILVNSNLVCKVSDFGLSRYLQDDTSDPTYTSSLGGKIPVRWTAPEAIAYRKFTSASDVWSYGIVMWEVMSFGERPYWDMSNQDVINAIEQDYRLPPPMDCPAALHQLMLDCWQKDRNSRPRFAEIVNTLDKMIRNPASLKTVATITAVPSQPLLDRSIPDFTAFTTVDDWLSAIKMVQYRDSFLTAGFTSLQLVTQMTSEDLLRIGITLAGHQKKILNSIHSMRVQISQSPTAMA

[4] = molecular target: T2, Ephrin type-B receptor 3 (Homo sapiens) (UniProt P54753); experiment: Induction of stabilization of recombinant EPHB3 (unknown origin) assessed as change in melting temperature by differential scanning fluorimetry assay
T2 sequence (whole entry): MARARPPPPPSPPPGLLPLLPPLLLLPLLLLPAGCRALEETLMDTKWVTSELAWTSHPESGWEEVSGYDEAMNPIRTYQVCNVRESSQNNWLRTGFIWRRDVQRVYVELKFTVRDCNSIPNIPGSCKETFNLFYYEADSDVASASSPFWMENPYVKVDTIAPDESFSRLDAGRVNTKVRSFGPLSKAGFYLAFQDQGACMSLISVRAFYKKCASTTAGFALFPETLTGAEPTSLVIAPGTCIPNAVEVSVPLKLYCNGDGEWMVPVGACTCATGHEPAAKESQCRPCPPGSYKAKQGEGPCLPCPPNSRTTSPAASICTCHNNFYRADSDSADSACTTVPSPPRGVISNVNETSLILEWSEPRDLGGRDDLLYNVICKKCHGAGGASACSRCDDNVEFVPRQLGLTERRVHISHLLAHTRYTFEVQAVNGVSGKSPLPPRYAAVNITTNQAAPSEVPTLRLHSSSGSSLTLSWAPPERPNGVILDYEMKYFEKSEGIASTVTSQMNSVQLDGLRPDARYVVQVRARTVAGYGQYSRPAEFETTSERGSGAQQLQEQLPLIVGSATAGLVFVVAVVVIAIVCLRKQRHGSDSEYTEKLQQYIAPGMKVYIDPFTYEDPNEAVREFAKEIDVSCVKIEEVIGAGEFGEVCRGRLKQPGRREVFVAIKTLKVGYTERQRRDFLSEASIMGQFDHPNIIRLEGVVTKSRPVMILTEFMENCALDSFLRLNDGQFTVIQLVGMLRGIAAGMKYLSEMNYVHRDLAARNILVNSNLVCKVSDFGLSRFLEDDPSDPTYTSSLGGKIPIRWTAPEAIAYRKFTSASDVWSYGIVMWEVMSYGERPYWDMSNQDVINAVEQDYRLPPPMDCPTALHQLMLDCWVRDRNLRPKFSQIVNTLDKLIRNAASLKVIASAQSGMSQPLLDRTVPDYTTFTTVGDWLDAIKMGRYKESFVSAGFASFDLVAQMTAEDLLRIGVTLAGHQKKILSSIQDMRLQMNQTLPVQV

[5] = molecular target: Vascular endothelial growth factor receptor 1 (Homo sapiens, UniProt P17948); experiment: Induction of stabilization of recombinant FLT1 (unknown origin) assessed as change in melting temperature by differential scanning fluorimetry assay
Sequence of Vascular endothelial growth factor receptor 1 (P17948 whole entry): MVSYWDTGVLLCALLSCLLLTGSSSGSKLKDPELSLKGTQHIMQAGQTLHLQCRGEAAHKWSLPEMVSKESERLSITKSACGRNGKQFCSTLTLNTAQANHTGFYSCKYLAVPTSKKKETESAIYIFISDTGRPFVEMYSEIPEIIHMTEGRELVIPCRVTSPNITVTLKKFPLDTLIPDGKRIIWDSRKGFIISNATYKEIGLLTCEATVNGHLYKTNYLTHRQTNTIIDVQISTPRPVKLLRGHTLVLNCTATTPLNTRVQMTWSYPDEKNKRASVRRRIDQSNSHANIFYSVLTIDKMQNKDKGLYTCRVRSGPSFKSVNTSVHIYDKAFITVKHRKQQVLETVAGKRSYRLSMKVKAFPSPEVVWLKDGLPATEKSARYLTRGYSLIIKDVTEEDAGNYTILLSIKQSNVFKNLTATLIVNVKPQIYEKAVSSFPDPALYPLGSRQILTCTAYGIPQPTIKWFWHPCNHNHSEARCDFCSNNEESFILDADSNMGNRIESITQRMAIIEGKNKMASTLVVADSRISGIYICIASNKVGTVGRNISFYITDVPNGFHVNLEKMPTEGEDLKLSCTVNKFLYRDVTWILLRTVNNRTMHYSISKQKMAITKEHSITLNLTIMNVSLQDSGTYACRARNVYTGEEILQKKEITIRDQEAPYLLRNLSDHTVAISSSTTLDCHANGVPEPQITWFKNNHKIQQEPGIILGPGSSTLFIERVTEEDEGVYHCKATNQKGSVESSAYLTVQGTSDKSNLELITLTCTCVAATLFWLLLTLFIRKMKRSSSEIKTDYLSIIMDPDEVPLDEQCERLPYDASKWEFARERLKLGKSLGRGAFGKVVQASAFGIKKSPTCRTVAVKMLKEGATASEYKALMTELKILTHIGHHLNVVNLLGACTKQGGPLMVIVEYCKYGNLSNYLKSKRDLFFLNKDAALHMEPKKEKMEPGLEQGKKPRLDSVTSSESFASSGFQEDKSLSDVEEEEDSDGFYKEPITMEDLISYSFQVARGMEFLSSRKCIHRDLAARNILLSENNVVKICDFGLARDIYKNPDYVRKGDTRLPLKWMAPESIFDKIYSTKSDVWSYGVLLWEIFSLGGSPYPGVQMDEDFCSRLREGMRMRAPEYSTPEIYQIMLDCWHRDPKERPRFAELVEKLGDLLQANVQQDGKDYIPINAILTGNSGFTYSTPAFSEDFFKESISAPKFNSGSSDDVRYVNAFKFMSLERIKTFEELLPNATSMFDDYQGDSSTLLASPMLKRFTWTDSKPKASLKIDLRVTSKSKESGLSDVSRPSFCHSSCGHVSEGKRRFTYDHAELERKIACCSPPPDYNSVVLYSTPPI

[6] = molecular target: Ephrin type-A receptor 2 (Homo sapiens, UniProt P29317)
Sequence of Ephrin type-A receptor 2 (P29317 whole entry): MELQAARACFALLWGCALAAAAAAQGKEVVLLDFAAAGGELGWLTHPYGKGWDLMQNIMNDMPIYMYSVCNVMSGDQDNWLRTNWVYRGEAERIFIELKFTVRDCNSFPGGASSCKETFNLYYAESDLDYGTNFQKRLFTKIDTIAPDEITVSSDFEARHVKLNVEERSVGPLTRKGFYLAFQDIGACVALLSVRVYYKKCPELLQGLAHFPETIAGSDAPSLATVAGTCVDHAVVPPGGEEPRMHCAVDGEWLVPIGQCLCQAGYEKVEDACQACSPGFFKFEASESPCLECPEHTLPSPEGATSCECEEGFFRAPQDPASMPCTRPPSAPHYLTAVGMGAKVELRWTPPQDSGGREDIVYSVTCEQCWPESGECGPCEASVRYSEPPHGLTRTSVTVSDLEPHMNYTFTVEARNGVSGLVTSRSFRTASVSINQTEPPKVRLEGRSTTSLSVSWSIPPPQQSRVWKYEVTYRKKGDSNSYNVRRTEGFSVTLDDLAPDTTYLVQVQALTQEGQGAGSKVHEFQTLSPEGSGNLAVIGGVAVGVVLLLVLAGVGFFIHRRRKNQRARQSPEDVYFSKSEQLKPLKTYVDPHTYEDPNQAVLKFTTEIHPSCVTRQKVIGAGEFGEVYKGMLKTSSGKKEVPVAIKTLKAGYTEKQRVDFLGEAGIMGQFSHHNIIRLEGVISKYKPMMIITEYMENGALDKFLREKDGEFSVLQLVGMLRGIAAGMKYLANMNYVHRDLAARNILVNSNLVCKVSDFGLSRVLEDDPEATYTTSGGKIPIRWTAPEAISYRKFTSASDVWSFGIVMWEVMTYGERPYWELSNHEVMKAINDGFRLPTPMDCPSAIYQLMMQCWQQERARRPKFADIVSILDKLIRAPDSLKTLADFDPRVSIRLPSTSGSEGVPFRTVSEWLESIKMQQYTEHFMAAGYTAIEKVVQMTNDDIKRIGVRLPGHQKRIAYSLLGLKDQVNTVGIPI
Description: Induction of stabilization of recombinant EPHA2 (D596 to G900 residues) (unknown origin) expressed in Escherichia coli rosetta BL21(D3)-R3-pRARE2 competent cells assessed as change in melting temperature by differential scanning fluorimetry assay

[7] = molecular target: Ephrin type-A receptor 5 (Homo sapiens) (UniProt P54756)
Sequence of Ephrin type-A receptor 5 (Homo sapiens) (P54756 whole entry): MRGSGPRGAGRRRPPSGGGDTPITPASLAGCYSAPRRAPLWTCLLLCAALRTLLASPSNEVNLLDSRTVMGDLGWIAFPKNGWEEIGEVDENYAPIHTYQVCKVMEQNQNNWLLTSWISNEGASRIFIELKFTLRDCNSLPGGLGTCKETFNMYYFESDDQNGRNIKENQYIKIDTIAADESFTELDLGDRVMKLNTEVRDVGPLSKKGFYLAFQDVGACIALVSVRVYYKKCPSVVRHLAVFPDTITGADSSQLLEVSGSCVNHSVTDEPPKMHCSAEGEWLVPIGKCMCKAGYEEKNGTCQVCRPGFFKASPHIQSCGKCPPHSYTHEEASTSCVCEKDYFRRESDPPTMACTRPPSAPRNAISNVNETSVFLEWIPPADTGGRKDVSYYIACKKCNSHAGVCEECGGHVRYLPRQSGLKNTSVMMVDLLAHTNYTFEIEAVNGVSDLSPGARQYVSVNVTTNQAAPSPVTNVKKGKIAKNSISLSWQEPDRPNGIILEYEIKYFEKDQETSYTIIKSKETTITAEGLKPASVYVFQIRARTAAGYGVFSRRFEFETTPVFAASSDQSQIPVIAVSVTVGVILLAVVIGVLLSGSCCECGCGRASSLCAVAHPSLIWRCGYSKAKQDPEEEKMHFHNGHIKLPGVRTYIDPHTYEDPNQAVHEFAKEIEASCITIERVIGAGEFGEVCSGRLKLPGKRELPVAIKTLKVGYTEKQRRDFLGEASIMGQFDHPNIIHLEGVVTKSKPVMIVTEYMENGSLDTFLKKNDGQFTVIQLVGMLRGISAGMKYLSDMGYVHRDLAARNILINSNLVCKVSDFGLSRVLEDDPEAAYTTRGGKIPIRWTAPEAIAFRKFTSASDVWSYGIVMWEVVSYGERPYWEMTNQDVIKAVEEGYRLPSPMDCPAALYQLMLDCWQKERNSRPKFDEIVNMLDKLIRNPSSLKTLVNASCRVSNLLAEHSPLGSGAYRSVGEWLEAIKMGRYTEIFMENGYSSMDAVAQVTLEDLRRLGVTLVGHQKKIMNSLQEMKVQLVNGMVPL
Description: Induction of stabilization of recombinant EPHA5 (unknown origin) assessed as change in melting temperature by differential scanning fluorimetry assay

[8] = molecular target: Fibroblast growth factor receptor 1 (Homo sapiens, UniProt P11362)
Description: Induction of stabilization of recombinant FGFR1 (unknown origin) assessed as change in melting temperature by differential scanning fluorimetry assay

[9] = molecular target: Fibroblast growth factor receptor 2 (Homo sapiens) (UniProt P21802)
Sequence of Fibroblast growth factor receptor 2 (Homo sapiens) (P21802 22-821 limits assumed): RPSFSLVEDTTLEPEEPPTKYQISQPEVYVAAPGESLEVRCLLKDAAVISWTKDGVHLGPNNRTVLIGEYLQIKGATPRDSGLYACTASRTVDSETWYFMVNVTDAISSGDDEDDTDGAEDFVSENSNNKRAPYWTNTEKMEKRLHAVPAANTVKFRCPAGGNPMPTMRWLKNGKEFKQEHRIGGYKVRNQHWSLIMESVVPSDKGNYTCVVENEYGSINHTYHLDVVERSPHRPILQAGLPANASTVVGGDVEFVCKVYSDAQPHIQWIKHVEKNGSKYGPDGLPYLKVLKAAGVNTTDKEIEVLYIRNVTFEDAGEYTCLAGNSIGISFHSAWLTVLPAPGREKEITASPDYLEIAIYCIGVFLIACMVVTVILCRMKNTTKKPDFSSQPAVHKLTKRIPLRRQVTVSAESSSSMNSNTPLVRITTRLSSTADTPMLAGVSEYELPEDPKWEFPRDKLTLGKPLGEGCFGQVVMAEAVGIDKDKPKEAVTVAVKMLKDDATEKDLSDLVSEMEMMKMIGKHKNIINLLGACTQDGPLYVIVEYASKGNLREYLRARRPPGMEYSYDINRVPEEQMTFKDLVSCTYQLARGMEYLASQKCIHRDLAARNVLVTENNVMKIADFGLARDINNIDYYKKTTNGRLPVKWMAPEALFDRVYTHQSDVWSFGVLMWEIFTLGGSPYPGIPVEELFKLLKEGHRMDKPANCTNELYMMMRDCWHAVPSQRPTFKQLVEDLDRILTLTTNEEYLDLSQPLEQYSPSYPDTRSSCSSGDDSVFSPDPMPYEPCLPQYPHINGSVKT
Description: Induction of stabilization of recombinant FGFR2 (unknown origin) assessed as change in melting temperature by differential scanning fluorimetry assay

[10] = molecular target: T3, Cyclin-G-associated kinase (Homo sapiens) (UniProt O14976)
T3 sequence (whole entry): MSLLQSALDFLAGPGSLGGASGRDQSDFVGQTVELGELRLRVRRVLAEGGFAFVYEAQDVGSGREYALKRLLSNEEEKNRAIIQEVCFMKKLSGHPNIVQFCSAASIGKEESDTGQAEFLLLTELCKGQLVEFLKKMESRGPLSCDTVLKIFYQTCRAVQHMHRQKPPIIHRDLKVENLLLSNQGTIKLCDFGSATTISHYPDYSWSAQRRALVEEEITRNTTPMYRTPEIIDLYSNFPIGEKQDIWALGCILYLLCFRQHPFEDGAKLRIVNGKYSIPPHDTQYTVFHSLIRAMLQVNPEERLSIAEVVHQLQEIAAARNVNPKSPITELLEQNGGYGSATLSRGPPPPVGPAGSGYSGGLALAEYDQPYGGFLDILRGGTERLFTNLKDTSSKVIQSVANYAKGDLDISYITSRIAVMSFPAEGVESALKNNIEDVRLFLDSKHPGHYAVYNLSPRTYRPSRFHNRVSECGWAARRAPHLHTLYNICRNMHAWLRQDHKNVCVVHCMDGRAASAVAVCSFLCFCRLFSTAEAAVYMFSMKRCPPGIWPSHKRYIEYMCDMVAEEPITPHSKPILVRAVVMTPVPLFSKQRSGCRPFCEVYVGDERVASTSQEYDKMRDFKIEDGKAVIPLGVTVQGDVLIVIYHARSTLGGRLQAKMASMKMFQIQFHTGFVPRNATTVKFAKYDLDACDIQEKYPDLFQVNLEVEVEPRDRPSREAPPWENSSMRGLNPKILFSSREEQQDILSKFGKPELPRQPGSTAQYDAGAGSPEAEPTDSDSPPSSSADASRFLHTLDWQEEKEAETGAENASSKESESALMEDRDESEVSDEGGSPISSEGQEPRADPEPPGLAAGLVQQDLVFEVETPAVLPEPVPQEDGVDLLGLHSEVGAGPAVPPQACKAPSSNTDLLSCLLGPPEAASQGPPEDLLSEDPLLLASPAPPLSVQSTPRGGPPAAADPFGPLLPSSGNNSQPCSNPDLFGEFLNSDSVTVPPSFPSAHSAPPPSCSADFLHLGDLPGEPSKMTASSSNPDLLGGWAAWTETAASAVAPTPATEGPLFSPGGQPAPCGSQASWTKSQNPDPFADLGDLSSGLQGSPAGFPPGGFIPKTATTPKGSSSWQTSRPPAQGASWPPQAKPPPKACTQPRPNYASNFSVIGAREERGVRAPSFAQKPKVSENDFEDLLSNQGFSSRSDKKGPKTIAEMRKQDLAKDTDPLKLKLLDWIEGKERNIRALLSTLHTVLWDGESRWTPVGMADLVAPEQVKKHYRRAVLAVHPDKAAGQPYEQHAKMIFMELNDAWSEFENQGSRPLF
Description: Induction of stabilization of recombinant GAK (unknown origin) assessed as change in melting temperature by differential scanning fluorimetry assay

deltaTm [1] [K]	deltaTm [2] [K]	deltaTm [3] [K]	deltaTm [4] [K]	deltaTm [5] [K]	deltaTm [6] [K]	deltaTm [7] [K]	deltaTm [8] [K]	deltaTm [9] [K]	deltaTm [10] [K]	SMILES
3.2	0.1	3.3	4.3	4.3	7.5	5.7	3.1	4.7	5.8	O=S1(=O)NCCCNc2nc(ncc2-c2cc(Cl)c(F)cc2F)Nc2cccc1c2
4.7	0.4	4.9	5.8	3	9.8	6	2.7	3.4	9.3	COc1cc(-c2cnc3nc2NCCCNS(=O)(=O)c2cccc(c2)N3)c(F)cc1Cl
1.2	-3.3	2.7	2.3	3	5	1.9	2.2	2.9	4.1	COc1cc(-c2cnc3nc2NCCCNS(=O)(=O)c2cccc(c2)N3)cc(F)c1F
0.7	0.6	0	3.4	2.1	0.7	0.2	1	1.5	1.6	CC(C)Oc1cc(-c2cnc3nc2NCCCNS(=O)(=O)c2cccc(c2)N3)ccc1F
3.8	0.4	3.5	5.4	5.4	9.5	5.6	4.5	5.7	6.5	O=S1(=O)NCCCNc2nc(ncc2-c2cc(Cl)c(Cl)cc2F)Nc2cccc1c2

More lines, now with the values behind:

SMILES	deltaTm [1] [K]	deltaTm [2] [K]	deltaTm [3] [K]	deltaTm [4] [K]	deltaTm [5] [K]	deltaTm [6] [K]	deltaTm [7] [K]	deltaTm [8] [K]	deltaTm [9] [K]	deltaTm [10] [K]
COC(=O)c1ccc(-c2cnc3nc2NCCCNS(=O)(=O)c2cccc(c2)N3)cc1OC	1.3	0.1	1.1	1.3	2.6	2.9	1.8	0.6	1.8	3.1
COc1cc(-c2cnc3nc2NCCCNS(=O)(=O)c2cc(ccc2-c2ccc(O)cc2)N3)ccc1F	5.3	2.9	4.3	6	3.6	9.8	6.7	3.1	4	3.6
COc1cc(-c2cnc3nc2NCCCNS(=O)(=O)c2cc(ccc2C)N3)ccc1F	3.6	2	4.2	6.1	-1.3	7.6	5.5	2.7	3	6.4
COC(=O)c1cc(-c2cnc3nc2NCCCNS(=O)(=O)c2cccc(c2)N3)ccc1F	-0.6	-2.8	1.3	1.5	6.4	2.1	-0.7	3.5	3.1	-1.3
COC(=O)COc1ccc2cc1S(=O)(=O)NCCCNc1nc(ncc1-c1ccc(F)c(OC)c1)N2	1.6	0.4	1	1.4	0.3	2.4	2.3	0.5	1.3	3.7
COc1cc(-c2cnc3nc2NCCCNS(=O)(=O)c2cccc(c2)N3)ccc1C#N	5.2	0	5.2	3.1	1.1	8.6	6.2	0	1.7	8.9
COc1cc(-c2cnc3nc2NCCCNS(=O)(=O)c2cc(ccc2OCCN2CCOCC2)N3)ccc1F	3.7	1	4.2	4.8	3	6.9	4.6	2.1	3.2	9
